Where a name gives a salt, the structure may show the parent alone.
Tests used:
nitrification = assay: Table 1 summary: compounds found to work or not work as nitrification inhibitors, Inhib(%); set-up: concentration or dose not given beside the values; settings: test and rate not given
Experimental: The phenotypic screening involved assessing the nitrification inhibition potency of the selected 5000 compounds against a key ammonia oxidizing bacterium responsible for ammonia oxidation in the soil, Nitrosomonas europaea, in 96-well microtiter plates. N. europaea cells were grown in the presence of an ammonium source, and the potential of putative nitrification inhibitors to inhibit the production of nitrite (NO2) was measured relative to untreated cells.
A summary of selected compounds initially found to either work or not work as nitrification inhibitors is detailed in Table 1 below.

[1] = test system: nitrification in the soil; assay: Laboratory soil incubation, Templeton sandy loam with synthetic cow urine, nitrate-N; settings: for nitrate-N concentration in the soil compared with urine alone or urine+DMSO / reducing the nitrification rate compared with DCD: day 30; for reducing the nitrification rate compared with DCD: compound at 2 kg/ha vs DCD at 10 kg/ha; for % reduction by NI (nitrate-N): vs urine alone, 30 days; for Nitrate-N: 30 days of incubation
Experimental: A Templeton sandy loam was used in this experiment. 500 g of soil (dry weight basis) was packed into a pottle. 50 mL of synthetic cow urine with an N concentration of 7 g N/L (comprising about 87% urea-N and 13% glycine-N) was applied to the soil (equivalent to 700 kg N/ha on weight basis, assuming bulk density of 1 g/cm^3 in the top 10 cm of soil). The 700 kg N/ha application was used to simulate the urine-N application rate under a typical dairy cow urine patch in a grazed pasture.
Control treatments also added to soil were: • urine alone (50 mL); • DMSO (equivalent to 0.9 mL/500 g soil)+urine (50 mL) to determine the effect of DMSO on nitrification rate; • water alone (50 mL) (simulating areas of the soil where no urine was deposited).
Pottles were covered with lids with breathing holes to allow for gas exchange during incubation. Pottles were incubated at 12° C. Soil moisture content was maintained at field capacity by adjusting on weight basis twice a week.
Soil samples were collected and were then thoroughly mixed and subsamples were extracted in a potassium chloride solution and analysed for mineral-N. Soil moisture content was also determined. Samples were taken at 30 days after the start of incubation. […]

| Compound | Inhib(%) (nitrification) | nitrate-N concentration in the soil compared with urine alone or urine+DMSO ([1]; 2 kg/ha) | reducing the nitrification rate compared with DCD [1] | also measured |
| --- | --- | --- | --- | --- |
| C#Cc1cc[n+](O)cc1 [4-ethynylpyridine 1-oxide, reference compound] | 18% |  |  |  |
| C#CC1CCNCC1 [4-ethynylpiperidine hydrochloride, reference compound] | 0% |  |  |  |
| C#Cc1cnc(C#C)nc1 [2,5-diethynylpyrimidine, reference compound] | 60% |  |  |  |
| C#Cc1ccc(C#C)nc1 [2,5-diethynylpyridine] | 100% | lower nitrate-N concentrations |  |  |
| C#Cc1ccc(OC(F)(F)F)cc1 [1-ethynyl-4-(trifluoromethoxy)benzene, reference compound] | 8% |  |  |  |
| C#Cc1ccc(O)cc1 [4-ethynylphenol, reference compound] | 0% |  |  |  |
| C#Cc1ccc(OC)nc1 [5-ethynyl-2-methoxypyridine] | 100% | lower nitrate-N concentrations |  |  |
| C#Cc1ccc(OCC)cc1 [1-ethoxy-4-ethynylbenzene] | 100% | significantly lower nitrate-N concentrations | more effective than DCD |  |
| C#Cc1ccncn1 [4-Ethynylpyrimidine] | 100% | significantly lower nitrate-N concentrations | more effective than DCD | nitrate-N concentration in the soil compared with urine alone or urine+DMSO ([1]; 1 kg/ha): lower nitrate-N concentrations |
| C#Cc1ccc(OCCCCC)cc1 [1-ethynyl-4-pentoxybenzene, reference compound] | 2% |  |  |  |
| C#Cc1cccnn1 [3-Ethynylpyridazine] |  | significantly lower nitrate-N concentrations | more effective than DCD | nitrate-N concentration in the soil compared with urine alone or urine+DMSO ([1]; 0.5 kg/ha): lower nitrate-N concentrations; % reduction by NI (nitrate-N) ([1]; 0.5 kg/ha): 91%; nitrate-N concentration in the soil compared with urine alone or urine+DMSO ([1]; 1 kg/ha): lower nitrate-N concentrations; % reduction by NI (nitrate-N) ([1]; 1 kg/ha): 98%; % reduction by NI (nitrate-N) ([1]; 2 kg/ha): 95%; Nitrate-N ([1]; urine + inhibitor at 0.5 kg/ha): 35.5 mg N/kg soil; Nitrate-N ([1]; urine + inhibitor at 1 kg/ha): 10.3 mg N/kg soil; Nitrate-N ([1]; urine + inhibitor at 2 kg/ha): 10.5 mg N/kg soil |
| C#Cc1ccc(C#C)cc1 [1,4-diethynylbenzene] | 100% | significantly lower nitrate-N concentrations | more effective than DCD |  |
| C#CC1CCN(C(C)=O)CC1 [1-(4-ethynyl-1-piperidinyl)ethanone, reference compound] | 0% |  |  |  |
| C#Cc1cnccn1 [2-ethynylpyrazine] |  |  | more effective than DCD |  |
| C#Cc1c[nH]c(=O)[nH]c1=O [5-ethynyl-2,4(1H,3H)-pyrimidinedione, reference compound] | 0% |  |  |  |

Reference: patent publication US11578013B2, “Nitrification inhibitors” (Lincoln University, priority 2020, dated 2023)
